In PMC5998989 (Pain Medicine: The Official Journal of the American Academy …, 2017):
Where “and” joins values, the source holds several entries; their conditions need not be identical. Identical values can stand only once.

Legend:
[1] = tested on: cannabinoid receptors / TRPV1 receptors; conditions: cited from earlier work
patients with PNP = conditions: cited from earlier work
healthy female subjects [2] = experiment: Safety and tolerability; type: in vivo, human
[3] = Plasma pharmacokinetics after multiple ascending once daily doses; type: in vivo, human
healthy female subjects [4] = experiment: VAS pain; type: in vivo, human; conditions: all subjects
healthy female subjects [5] = experiment: Laser evoked potentials; type: in vivo, human; conditions: for Dose at which the maximum postdose response was attained: LEP N2-P2 PtP, once daily multiple dosing; for Time to maximum response (percentage change in LEP N2-P2 PtP amplitudes): after dosing
rats = conditions: ref unpublished data; cited from earlier work

Structure (SMILES): CCCCC/C=C\C/C=C\C/C=C\C/C=C\CCCC(=O)NCCO [AEA, N-arachidonoyl-ethanolamine]
- Potency toward cannabinoid receptors relative to that toward TRPV1 receptors [1]: about 10 times

Structure (SMILES): O=C(Nc1ccccc1)C1CCN(C(=O)Oc2cccnc2)CC1 [ASP8477]
- Difference between ASP8477 and placebo (patients with PNP; double-blind randomized withdrawal period): no difference
- Patients reporting a reduction of ≥30% in their pain (patients with PNP; single-blind period, 30 mg BID): ~60%
- Tolerability (healthy female subjects [2]; ascending doses of 20 mg, 60 mg, and 100 mg once daily): well tolerated
- Subjects reporting a treatment-emergent adverse event (TEAE) (healthy female subjects [2]; during treatment, all doses): 83%
- TEAE disorientation, subjects (healthy female subjects [2]; during treatment, all doses): 8%
- TEAE disturbance in attention and illusion, subjects (healthy female subjects [2]; during treatment, all doses): 13%
- TEAE dry mouth, subjects (healthy female subjects [2]; during treatment, all doses): 21%
- TEAE fatigue, subjects (healthy female subjects [2]; during treatment, all doses): 29%
- TEAE headache, subjects (healthy female subjects [2]; during treatment, all doses): 29%
- TEAE memory impairment, subjects (healthy female subjects [2]; during treatment, all doses): 13%
- TEAE vertigo, subjects (healthy female subjects [2]; during treatment, all doses): 29%
- Dose proportionality of PK parameters ([3]; between 20 mg and 100 mg, multiple ascending doses): more than dose-proportional
- Absorption following oral dosing ([3]; oral dosing): rapidly absorbed
- Median tmax (range) ([3]; oral dosing, all doses): 2.1 to 4.1 h
- Day 14 predose response for VAS pain scores, % of the maximum response (healthy female subjects [4]): 23%
- Day 21 predose response for VAS pain scores, % of the maximum response (healthy female subjects [4]): 4%
- Mean difference vs placebo in VAS pain score (healthy female subjects [4]; all doses): –2.55%
- Mean VAS pain score (healthy female subjects [4]; all three doses (overall)): 42.23%
- Mean Difference (95% CI) vs placebo, LEP N2-P2 PtP amplitude, secondary analysis (healthy female subjects [5]; 100 mg day 21 vs placebo day 21, all subjects, session as a random effect): −1.58 (−3.30 to 0.15) µV
- Mean Difference (95% CI) vs placebo, LEP N2-P2 PtP amplitude, primary analysis (healthy female subjects [5]; 100 mg day 21 vs placebo day 21, all subjects, session as replications): −1.58 (−3.30 to 0.14) µV
- LS mean PtP (SE), LEP N2-P2 PtP amplitude, secondary analysis (healthy female subjects [5]; 100 mg, day 21, all subjects, linear mixed regression model with session as a random effect): 29.66 (2.80) µV
- LS mean PtP (SE), LEP N2-P2 PtP amplitude, primary analysis (healthy female subjects [5]; 100 mg, day 21, all subjects, linear mixed regression model with session as replications): 28.31 (2.75) µV
- Dose at which the maximum postdose response was attained (healthy female subjects [5]): 20 mg
- Time to maximum response (percentage change in LEP N2-P2 PtP amplitudes) (healthy female subjects [5]): approximately one to four
- Day 14 predose response for LEP N2-P2 PtP amplitudes, % of the maximum response (healthy female subjects [5]; all subjects): 4% and 8%
- Day 21 predose response for LEP N2-P2 PtP amplitudes, % of the maximum response (healthy female subjects [5]; all subjects): 19%
- LEP N2-P2 PtP cumulative magnitude of response (AUC) (healthy female subjects [5]; all subjects): approximately 200
- LEP N2-P2 PtP amplitudes, overall mean (healthy female subjects [5]; all subjects, across all doses): 28.51 µV
- Mean difference vs placebo in LEP N2-P2 PtP amplitudes (healthy female subjects [5]; all subjects, across all doses): –1.41 µV
- Day 21 predose effect for LEP N2-P2 PtP amplitudes, % of the maximum achievable effect (healthy female subjects [5]; capsaicin-positive subgroup): 40%
- LEP N2-P2 PtP cumulative magnitude of response (AUC) (healthy female subjects [5]; capsaicin-positive subgroup, day 7): approximately 400
- LEP N2-P2 PtP cumulative magnitude of response (AUC) (healthy female subjects [5]; capsaicin-positive subgroup, day 14): ~420
- LEP N2-P2 PtP cumulative magnitude of response (AUC) (healthy female subjects [5]; capsaicin-positive subgroup, day 21): ~470
- Effects in nonclinical toxicity studies (rats): effects observed on male fertility

Structure (SMILES): CNCC[C@H](Oc1cccc2ccccc12)c1cccs1 [duloxetine, reference compound]
- TEAE fatigue, subjects (healthy female subjects [2]; during treatment, all doses): 29%
- TEAE nausea, subjects (healthy female subjects [2]; during treatment, all doses): 29%
- PK parameters of 60 mg compared with 30 mg ([3]; once daily for seven days): approximately doubled
- Day 14 predose response for VAS pain scores, % of the maximum response (healthy female subjects [4]): 17%
- Day 21 predose response for VAS pain scores, % of the maximum response (healthy female subjects [4]): 10%
- Dose at which the maximum postdose response was attained (healthy female subjects [5]): 30 mg
- Time to maximum response (percentage change in LEP N2-P2 PtP amplitudes) (healthy female subjects [5]): approximately one to four
- Day 14 predose response for LEP N2-P2 PtP amplitudes, % of the maximum response (healthy female subjects [5]; all subjects): 26%
- Day 21 predose response for LEP N2-P2 PtP amplitudes, % of the maximum response (healthy female subjects [5]; all subjects): 44%
- LEP N2-P2 PtP amplitudes, overall mean (healthy female subjects [5]; all subjects, across all doses): 24.71 µV
- Mean difference duloxetine vs ASP8477 in LEP N2-P2 PtP amplitudes (healthy female subjects [5]; all subjects, across all doses): –3.80 µV
- Mean difference vs placebo in LEP N2-P2 PtP amplitudes (healthy female subjects [5]; all subjects, across all doses): –5.21 µV
- Day 14 predose effect for LEP N2-P2 PtP amplitudes, % of the maximum achievable effect (healthy female subjects [5]; capsaicin-positive subgroup): 40%
- Day 21 predose effect for LEP N2-P2 PtP amplitudes, % of the maximum achievable effect (healthy female subjects [5]; capsaicin-positive subgroup): around 40%
- Time to maximum effect (healthy female subjects [5]; postdose): five
